Test system: MiaPACA-2 cells
Test: Cytotoxic effect measured by hexosaminidase activity
Format: cell-based
Details: Homo sapiens, MIA PaCa-2; gemcitabine alone, 72 h; read-out: EC50 cell viability
Description: Briefly, MiaPACA-2 cells were plated onto 96-well cell culture plates (5×10^3 cells/well) in 50 μl of DMEM medium. […] After removing the culture media cells were washed once with PBS. Sixty microliters of substrate solution (p-nitrophenol-N-acetyl-beta-D-glucosamide 7.5 mM, sodium citrate 0.1 M, 0.25% Triton X-100, pH 5.0) was added to each well and plates were incubated at 37° C. for 2 hours; after this incubation time, a bright yellow appears and plates were developed by adding 90 μl of developer solution (Glycine 50 mM, EDTA 5 mM, pH 10.4), and the absorbance at 450 nm was measured by using a multi-well scanning spectrophotometer. Data analysis was done normalizing the results with the negative control (untreated cells) which were considered as 100% of viability.
Curves were adjusted using a sigmoidal dose-response (variable slope) equation, and EC50 values were obtained from the equation: Y=Bottom+(Top−Bottom)/(1+10^((Log EC50−X)*HillSlope)) where X is the logarithm of concentration and Y is the response. Y starts at Bottom and goes to Top with a sigmoid shape.

Nc1ccn([C@@H]2O[C@H](CO)[C@@H](O)C2(F)F)c(=O)n1 [gemcitabine]
EC50: 8.36 nM
